Data set [1] has as its target 3',5'-cyclic-AMP phosphodiesterase 4D (Homo sapiens, UniProt Q08499). Description: Inhibition of PDE4D2 (86-413) (unknown origin) expressed in Escherichia coli BL21 assessed as using [3H]-cAMP as substrate measured for 15 mins by liquid scintillation counting analysis.
For data set [2], the system named is Rattus norvegicus. Nature of the data set: Anti-idiopathic pulmonary fibrotic activity in bleomycin-induced Sprague-Dawley rat model assessed as decrease in fibronectin expression of lungs at 150 mg/kg, po treated for 28 consecutive days by Western blot analysis. The class given is functional, organism-based. Background: In western blotting, separated proteins are transferred to a membrane and probed.

The test system of data set [3] is Rattus norvegicus. Description: Anti-idiopathic pulmonary fibrotic activity in bleomycin-induced Sprague-Dawley rat model assessed as prevention of structural damage of lungs at 150 mg/kg, po treated for 28 consecutive days by Hematoxylin and eosin staining based assay relative to control. The class given is functional, organism-based.
The subject of data set [4] is Rattus norvegicus. Description: Anti-idiopathic pulmonary fibrotic activity in bleomycin-induced Sprague-Dawley rat model assessed as inhibition of collagen deposition around trachea and cell hyperplasia at 150 mg/kg, po treated for 28 consecutive days by Hematoxylin and eosin staining based assay relative to control. The class given is functional.
The test system of data set [5] is Rattus norvegicus. Description: Anti-inflammatory activity in bleomycin-induced idiopathic pulmonary fibrotic activity Sprague-Dawley rat model assessed as decrease in NO production in lungs at 150 mg/kg, po treated for 28 consecutive days. It is filed as functional, organism-based.
Data set [6] has as its system Rattus norvegicus. Description: Anti-idiopathic pulmonary fibrotic activity in bleomycin-induced Sprague-Dawley rat model assessed as decrease in alpha-smooth muscle actin protein expression of lungs at 150 mg/kg, po treated for 28 consecutive days by Western blot analysis. The class given is functional, organism-based.
Data set [7] is described as follows: Toxicity in dog assessed as emesis at 1 mg/kg, po. The class given is organism-based, Canis lupus familiaris. Particulars: in vivo.

This is an account of results in ChEMBL document CHEMBL4831531, “Mangostanin Derivatives as Novel and Orally Active Phosphodiesterase 4 Inhibitors for the Treatment of Idiopathic Pulmonary Fibrosis with Improved Safety” (J Med Chem, 2021).

Calls of active or inactive are those of the source. The calls are words filed in the database; no cut-off is given here.

3',5'-cyclic-AMP phosphodiesterase 4D, sequence (Q08499 whole entry): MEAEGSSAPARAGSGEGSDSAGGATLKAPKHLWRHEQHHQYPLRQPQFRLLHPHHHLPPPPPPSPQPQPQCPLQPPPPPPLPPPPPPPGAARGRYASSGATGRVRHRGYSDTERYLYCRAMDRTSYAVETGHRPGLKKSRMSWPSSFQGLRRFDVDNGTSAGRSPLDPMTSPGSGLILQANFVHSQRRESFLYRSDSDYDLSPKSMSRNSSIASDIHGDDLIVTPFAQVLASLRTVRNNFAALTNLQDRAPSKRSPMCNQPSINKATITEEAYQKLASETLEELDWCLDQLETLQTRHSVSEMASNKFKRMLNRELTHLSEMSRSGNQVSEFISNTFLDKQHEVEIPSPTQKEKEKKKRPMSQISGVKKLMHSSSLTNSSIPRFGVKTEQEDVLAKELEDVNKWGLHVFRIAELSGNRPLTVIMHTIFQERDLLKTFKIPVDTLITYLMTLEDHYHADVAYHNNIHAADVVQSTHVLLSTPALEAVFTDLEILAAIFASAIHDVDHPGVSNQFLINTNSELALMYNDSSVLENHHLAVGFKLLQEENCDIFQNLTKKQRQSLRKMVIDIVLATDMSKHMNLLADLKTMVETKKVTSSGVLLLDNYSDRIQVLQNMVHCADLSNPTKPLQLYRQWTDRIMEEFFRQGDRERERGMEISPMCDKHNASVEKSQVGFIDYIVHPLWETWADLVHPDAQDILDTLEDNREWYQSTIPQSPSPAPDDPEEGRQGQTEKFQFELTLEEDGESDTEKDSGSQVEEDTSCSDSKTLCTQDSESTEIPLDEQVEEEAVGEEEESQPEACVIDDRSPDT

`COc1cccc(COc2cc3oc4cc5c(c(OC/C=C/C(=O)O)c4c(=O)c3c(CC=C(C)C)c2OC)C=CC(C)(C)O5)c1`: the 50% inhibitory concentration (IC50) (as a rule, the concentration needed to halve the response being measured) in data set [1] turned out to be 16 nM.
Regarding `COc1c(O)cc2oc3cc4c(c(OCCCCC(=O)O)c3c(=O)c2c1CC=C(C)C)C=CC(C)(C)O4`, the IC50 in data set [1] came out at 24 nM.
On to `COc1c(OCc2ccccc2)cc2oc3cc4c(c(OC/C=C/C(=O)O)c3c(=O)c2c1CC=C(C)C)C=CC(C)(C)O4`, for which the half-inhibitory concentration (IC50) in data set [1] was 24 nM.
On the same count and under the same terms, next, `COc1c(OCc2cccc(F)c2)cc2oc3cc4c(c(OC/C=C/C(=O)O)c3c(=O)c2c1CC=C(C)C)C=CC(C)(C)O4`: more than 1000 nM; `COc1c(O)cc2oc3cc4c(c(OC/C=C/C(=O)O)c3c(=O)c2c1CC=C(C)C)C=CC(C)(C)O4`: 494 nM; `CCOC(=O)/C=C/COc1c2c(cc3oc4cc(OCc5ccc(F)cc5)c(OC)c(CC=C(C)C)c4c(=O)c13)OC(C)(C)C=C2`: 24 nM.
With `Cc1ccc(=O)n(-c2ccccc2)c1` [PIRFENIDONE], the result in the data set on Rattus norvegicus [2], in the data set with Rattus norvegicus [3], with Rattus norvegicus [5] and in the data set with Rattus norvegicus [6] was Active. For the same compound, the inhibition in vivo (usually the drop in the measured response relative to a control, in per cent) at 150 mg/kg in the data set on Rattus norvegicus [4] stood at 100%.
Consider `COc1c(O)cc2oc3cc4c(c(OCCCCCCC(=O)O)c3c(=O)c2c1CC=C(C)C)C=CC(C)(C)O4`, for which the 50% inhibitory concentration (IC50) in data set [1] was found to be 300 nM.
On the same count and under the same terms, next, `COc1c(O)cc2oc3cc4c(c(OCCCCCC(=O)O)c3c(=O)c2c1CC=C(C)C)C=CC(C)(C)O4`: 25 nM; `COc1c(OCc2ccc(S(C)(=O)=O)cc2)cc2oc3cc4c(c(OC/C=C/C(=O)O)c3c(=O)c2c1CC=C(C)C)C=CC(C)(C)O4`: 18 nM.
Still for that read-out and setting: next, `COc1c(O)cc2oc3cc4c(c(OCCCC(=O)O)c3c(=O)c2c1CC=C(C)C)C=CC(C)(C)O4`: more than 1000 nM.
On the same count and under the same terms, next, `COc1c(OC(C)C)cc2oc3cc4c(c(OC/C=C/C(=O)O)c3c(=O)c2c1CC=C(C)C)C=CC(C)(C)O4`: 31 nM; `COc1c(OCc2ccc(F)cc2)cc2oc3cc4c(c(OC/C=C\C(=O)O)c3c(=O)c2c1CC=C(C)C)C=CC(C)(C)O4`: 20 nM; `COc1c(OCc2ccc(F)cc2)cc2oc3cc4c(c(OCCCC(=O)O)c3c(=O)c2c1CC=C(C)C)C=CC(C)(C)O4`: 4.2 nM.
With `COc1c(OCCCCCCC(=O)O)cc2oc3cc4c(c(O)c3c(=O)c2c1CC=C(C)C)C=CC(C)(C)O4`, the IC50 in data set [1] turned out to be 19 nM.
On the same count and under the same terms, next, `CCOc1cc2oc3cc4c(c(OC/C=C/C(=O)O)c3c(=O)c2c(CC=C(C)C)c1OC)C=CC(C)(C)O4`: 48 nM; `CCOC(=O)/C=C/COc1c2c(cc3oc4cc(OCc5cccc(F)c5)c(OC)c(CC=C(C)C)c4c(=O)c13)OC(C)(C)C=C2`: 6.5 nM.
As to `COc1c(O)cc2oc3cc4c(c(OCC(=O)O)c3c(=O)c2c1CC=C(C)C)C=CC(C)(C)O4`, the IC50 in data set [1] came to 17 nM.
On the same count and under the same terms, next, `COc1cc2oc3cc4c(c(OC/C=C/C(=O)O)c3c(=O)c2c(CC=C(C)C)c1OC)C=CC(C)(C)O4`: 30 nM; `COc1c(OCc2cccc(C)c2)cc2oc3cc4c(c(OC/C=C/C(=O)O)c3c(=O)c2c1CC=C(C)C)C=CC(C)(C)O4`: more than 1000 nM.
On to `COc1ccc(C2CNC(=O)C2)cc1OC1CCCC1` (stereo not given) [ROLIPRAM], for which the Activity entry in data set [7] is reported as “Toxic”.
